Source: patent publication EP4667458A1 (Kanaph Therapeutics Inc., priority 2023, dated 2024)

Test: Cell viability with a combined anticancer agent plus Example B01 (Synergy 1 / Synergy 2)
Assay type: cell-based
Details: culture time 72 h; printed in the anticancer agent concentration column

For `C[C@]12C=CC(=O)C=C1CC[C@@H]1[C@@H]2[C@@H](O)C[C@@]2(C)[C@H]1CC[C@]2(O)C(=O)CO` [Prednisolone, prednisolone], the “concentration dependence of the effect of the anticancer agent on cell viability” value was “No concentration -dependent change”.
